Test results: publication PMC8327158, “PEGylated AdipoRon derivatives improve glucose and lipid metabolism under insulinopenic and high-fat diet conditions” (Journal of Lipid Research, 2021)

System: HFD-fed wild-type mice
Test: Sphingolipid levels in tissues and serum of HFD-fed mice by mass spectrometry
Assay type: in vivo, mouse
Conditions: average ± SD
Protocol: Six-week-old wild-type male mice were fed HFD for 4 weeks or 7 months In total, 5 mg/Kg of PBS, Adiporon, AdipoRonPEG5, AdipoRonPEG6HTL were injected twice a day for 5 days. After 5 days of treatment, systemic test is performed, and serum (Before and after treatment), subcutaneous, epididymal, liver, heart samples were harvested for qPCR and sphingolipid analysis.
Flash-frozen tissue samples (~40 mg) in a borosilicate glass tube were quenched with 2.0 ml of organic extraction solvent (isopropanol: ethyl acetate, 15:85; v:v) and homogenized with a mechanical tissue disruptor. Immediately afterward, 20 μl of organic internal standard solution was added (Ceramide/Sphingoid Internal Standard Mixture II diluted 1:10 in ethanol). The mixture was vortexed for 20 s and sonicated in ultrasonic bath for 40 min at 40°C. The organic extract was allowed to reach room temperature, and 1.5 ml of HPLC water was added and a two-phase liquid-liquid extraction was performed. The upper phase was transferred to a new clean tube, and the lower aqueous phase containing the protein pellet was re-extracted with additional 2.0 ml of organic extraction solvent. The organic phases were combined and dried under nitrogen stream at 40°C. Dried extracts were stored at –80°C until analysis. For analysis of ceramides and sphingoid base species, the dried residues were reconstituted in 200 μl of methanol. Sphingomyelins required a sample dilution of 1:50 in methanol prior to analysis. Serum sphingolipids were extracted using a similar methodology requiring 25 μl of serum.
Liver, subcutaneous adipose tissue, pancreas, pancreatic islets were initially homogenized in 500 μl of cold PBS using an ultrasonic probe disruptor and keeping the sample on ice during sonication. In total, 50 μl of aqueous homogenate was aliquoted for protein determination. In total, 400 μl of the lysate was immediately quenched in 2.0 ml of organic extraction solvent.
In total, 5 μl of reconstituted samples was injected into an LC/MS/MS system for the analysis of ceramides and sphingoid bases, and 1 μl injection was required for the analysis of sphingomyelins. The system consisted of a Shimadzu LCMS-8050 triple-quadrupole mass spectrometer with the dual ion source operating in electrospray positive ionization mode. The mass spectrometer is coupled to a Shimadzu Nexera X2 UHPLC system equipped with three solvent delivery modules LC-30AD, three degassing units DGU-20A5R, an autosampler SIL-30ACMP, and a column oven CTO-20AC operating at 40°C (Shimadzu Scientific Instruments, Columbia, MD). Six sphingoid bases (d18:1 sphingosine, d18:1 sphingosine-1-phosphate, d18:1 deoxysphingosine, d18:0 sphinganine, d18:0 sphinganine-1-phosphate, d18:0 deoxysphinganine) and […] ceramide species and their metabolites (C16:0, C16:0 dihydroceramide, C16:0 glucosylceramide, C16:0 lactosylceramide, C16:0 sphingomyelin, C18:0, C18:0 dihydroceramide, C18:0 glucosylceramide, C18:0 sphingomyelin, C18:1, C20:0, C22:0, C22:0 glucosylceramide, C24:0, C24:0 dihydroceramide, C24:0 lactosylceramide, C24:0 sphingomyelin, C24:1, C24:1 dihydroceramide, C24:1 glucosylceramide, C24:1 sphingomyelin). Quantitative analysis of sphingolipids was achieved using selective reaction monitoring scan mode. Lipid separation was achieved by reverse phase LC on a 2.1 (i.d.) × 150 mm Ascentis Express C8, 2.7 micron (Supelco, Bellefonte, PA) column under gradient elution, using three different mobile phases: eluent A consisting of methanol/water/formic acid, 600/400/0.8, v/v/v with 5 mM ammonium formate, eluent B consisting of methanol/formic acid, 1,000/0.8, v/v with 5 mM ammonium formate, and eluent C consisting of CH3OH/CH2Cl2 350/650. The concentration of each metabolite was determined according to calibration curves using the peak-area ratio of analyte versus corresponding internal standard. Calibration curves were generated using serial dilutions of each target analyte.

[1] = scWAT, 5 mg/kg twice a day 5 days
[2] = serum at day 0 (before treatment)
[3] = serum at day 5, 5 mg/kg twice a day 5 days

O=C(COc1ccc(C(=O)c2ccccc2)cc1)NC1CCN(Cc2ccc(OCCOCCOCCOCCOCCO)cc2)CC1 [AdipoRonPEG5]
Hexosyl 16:0 [1]: 1715352.2 ± 544724.48 pg/mg | Hexosyl 18:0 [1]: 988756.1 ± 523374.82 pg/mg | Hexosyl 20:0 [1]: 624871.6 ± 310850.97 pg/mg | Hexosyl 22:0 [1]: 5932684.2 ± 2348171.67 pg/mg | Hexosyl 24:0 [1]: 25627611.9 ± 14360009.57 pg/mg | Hexosyl 24:1 [1]: 13838465.2 ± 7503242.47 pg/mg | Lactosyl 16:0 [1]: 44866.5 ± 53044.09 pg/mg | Lactosyl 18:0 [1]: 0.0 ± 0.0 pg/mg | Lactosyl 22:0 [1]: 41846.1 ± 19236.41 pg/mg | Lactosyl 24:1 [1]: 71016.8 ± 18649.91 pg/mg | Lactosyl C24:0 [1]: 41489.9 ± 21166.47 pg/mg | Sphingaine1P [1]: 40997.6 ± 18111.26 pg/mg | Sphinganine [1]: 35831.5 ± 25048.56 pg/mg | Sphingosine [1]: 65862.8 ± 45362.44 pg/mg | Sphingosine1P [1]: 45575.1 ± 20925.35 pg/mg | dCer 16:0 [1]: 12585.7 ± 3750.43 pg/mg | dCer 18:0 [1]: 16110.9 ± 4383.33 pg/mg | dCer 20:0 [1]: 82646.0 ± 51960.31 pg/mg | dCer 22:0 [1]: 65558.1 ± 8753.52 pg/mg | dCer 24:0 [1]: 87756.9 ± 10704.97 pg/mg | dCer 24:1 [1]: 103545.6 ± 21754.88 pg/mg | Cer 14:0 [2]: 9547.7 ± 2338.7 pg/mg | Cer 16:0 [2]: 29166.2 ± 4917.61 pg/mg | Cer 18:0 [2]: 8552.2 ± 1447.69 pg/mg | Cer 18:1 [2]: 0 pg/mg | Cer 20:0 [2]: 161041.9 ± 19909.93 pg/mg | Cer 22:0 [2]: 2248954.3 ± 477468.89 pg/mg | Cer 24:0 [2]: 1497571.4 ± 240898.06 pg/mg | Cer 24:1 [2]: 1109542.1 ± 131449.16 pg/mg | Cer 26:0 [2]: 11416.3 ± 5402.24 pg/mg | Cer 26:1 [2]: 0 pg/mg | DeoxySphinganie [2]: 0.0 ± 0.0 pg/mg | Deoxysphingosine [2]: 0.0 ± 0.0 pg/mg | Hexosyl 14:0 [2]: 2960.2 ± 1473.95 pg/mg | Hexosyl 16:0 [2]: 3186431.1 ± 124319.92 pg/mg | Hexosyl 18:0 [2]: 50804.8 ± 12885.62 pg/mg | Hexosyl 20:0 [2]: 212177.0 ± 30736.45 pg/mg | Hexosyl 22:0 [2]: 12426084.7 ± 1134587.25 pg/mg | Hexosyl 24:0 [2]: 1547284.6 ± 152581.98 pg/mg | Hexosyl 24:1 [2]: 4176146.7 ± 370105.27 pg/mg | Lactosyl 16:0 [2]: 97139.2 ± 3984.55 pg/mg | Lactosyl 18:0 [2]: 0.0 ± 0.0 pg/mg | Lactosyl 22:0 [2]: 67539.8 ± 8954.59 pg/mg | Lactosyl 24:1 [2]: 91085.1 ± 17618.54 pg/mg | Lactosyl C24:0 [2]: 106966.9 ± 12842.2 pg/mg | Sphingaine1P [2]: 236098.7 ± 23069.11 pg/mg | Sphinganine [2]: 40000.3 ± 8021.4 pg/mg | Sphingosine [2]: 34674.5 ± 9280.02 pg/mg | Sphingosine1P [2]: 626634.8 ± 40618.85 pg/mg | dCer 16:0 [2]: 19797.0 ± 3523.66 pg/mg | dCer 18:0 [2]: 11474.0 ± 1631.86 pg/mg | dCer 20:0 [2]: 4088.3 ± 831.07 pg/mg | dCer 22:0 [2]: 358570.9 ± 58282.32 pg/mg | dCer 24:0 [2]: 224332.4 ± 35925.97 pg/mg | dCer 24:1 [2]: 127711.1 ± 26772.71 pg/mg | Cer 14:0 [3]: 9929.6 ± 3137.7 pg/mg | Cer 16:0 [3]: 15778.4 ± 1918.13 pg/mg | Cer 18:0 [3]: 13708.7 ± 1433.97 pg/mg | Cer 18:1 [3]: 0 pg/mg | Cer 20:0 [3]: 132529.6 ± 32152.61 pg/mg | Cer 22:0 [3]: 1388023.2 ± 196403.0 pg/mg | Cer 24:0 [3]: 1824217.1 ± 192203.29 pg/mg | Cer 24:1 [3]: 1024425.3 ± 215659.12 pg/mg | Cer 26:0 [3]: 16852.6 ± 6836.06 pg/mg | Cer 26:1 [3]: 0 pg/mg | DeoxySphinganie [3]: 0.0 ± 0.0 pg/mg | Deoxysphingosine [3]: 0.0 ± 0.0 pg/mg | Hexosyl 14:0 [3]: 2152.8 ± 1534.14 pg/mg | Hexosyl 16:0 [3]: 4458327.8 ± 279958.81 pg/mg | Hexosyl 18:0 [3]: 102580.4 ± 20477.28 pg/mg | Hexosyl 20:0 [3]: 312105.6 ± 82139.38 pg/mg | Hexosyl 22:0 [3]: 7780658.1 ± 1388198.99 pg/mg | Hexosyl 24:0 [3]: 1624021.9 ± 177684.63 pg/mg | Hexosyl 24:1 [3]: 3454314.7 ± 273336.65 pg/mg | Lactosyl 16:0 [3]: 90624.9 ± 13005.26 pg/mg | Lactosyl 18:0 [3]: 0.0 ± 0.0 pg/mg | Lactosyl 22:0 [3]: 65007.0 ± 14500.42 pg/mg | Lactosyl 24:1 [3]: 157880.8 ± 14580.32 pg/mg | Lactosyl C24:0 [3]: 128620.1 ± 18235.69 pg/mg | Sphingaine1P [3]: 512041.7 ± 138152.22 pg/mg | Sphinganine [3]: 15276.5 ± 1962.03 pg/mg | Sphingosine [3]: 21363.8 ± 828.59 pg/mg | Sphingosine1P [3]: 1121550.6 ± 208889.89 pg/mg | dCer 16:0 [3]: 3599.4 ± 848.4 pg/mg | dCer 18:0 [3]: 4287.0 ± 935.1 pg/mg | dCer 20:0 [3]: 2230.0 ± 831.07 pg/mg | dCer 22:0 [3]: 88406.3 ± 22461.25 pg/mg | dCer 24:0 [3]: 67386.7 ± 20818.51 pg/mg | dCer 24:1 [3]: 33950.3 ± 10616.3 pg/mg
